Assay type in all cases: cell-based
In data set [1] the test system is Fusarium culmorum. The data set is described as follows: Liquid growth inhibition assay in half strength potato dextrose broth. The method, then: Yeast cells transformed with either pTG3828, pMFprepro/Rs AFP2 or PMFpre/RsAFP2 were grown in selective SD medium until a saturated culture was obtained. To assess the antifungal activity of proteins secreted by the yeast cells, the supernatant of the yeast cultures was filtered (sterile 0.22 μm filter) and serially diluted in sterile water. Diluted samples (20 μl) were incubated in microtiter plate wells with 80 μl of half strength potato dextrose broth (Difco) containing spores 10^4 spores/ml) of Fusarium culmorum.
Growth of the fungi was monitored by microspectrophotometry as described by Broekaert et al (1990, FEMS Microbiol Lett, 69:55-60). Homogenates of yeast cells were prepared by spinning down 1 ml of a saturated yeast culture, suspending the cells in 200 μl of water, vortexing the cells in the presence of 0.2 g of glass beads (425-600 μm), and clearing the homogenate by centrifugation (1 min, 10000×g). Antifungal activity could only be detected in the culture medium of yeast cells transformed with pMFprepro/RsAFP2, which contained about 2 μg/ml of Rs-AFP2 equivalents. The activity of the homogenate of these cells, as well as that of culture media and cell homogenates of yeast cells transformed with pMFpre/RsAFP2 or pTG3828 transformed yeasts was below the detection limit (about 0.2 μg/ml of Rs-AFP2 equivalents).
The supernatant of 100 ml of a saturated culture of yeast transformed with pMFprepro/RsAFP2 (grown on minimal selective SD medium supplemented with 0.5% w/v of casamino acids) was centrifuged (4000 rpm, 10 min), and filtered (0.45 μm) to remove yeast cells and debris. Tris-HC1 (pH9) was added to the supernatant to a final concentration of 50 mM. The sample was loaded at a flow rate of 2 ml/min on an anion exchange chromatography column (Q-Sepharose Fast Flow, 20 ml bed volume, Pharmacia), on-line connected with a disposable reversed-phase C8 silica column (Bond Elut, 500 mg solid phase, Varian, Harbor City, USA). The antifungal activity was not retained on the Q-Sepharose matrix but bound to the C8 silica matrix. […] The latter eluate was dried in a rotating vacuum concentrator, redissolved in 0.5 ml 15% (v/v) acetonitrile containing 0.1% (v/v) TFA, and was loaded on a reversed-phase C2/C18 silica column (Pep-S, 5 μm beads, 0.4×25 cm, Pharmacia connected to a Waters 600 HPLC station pre-equilibriated with 15% acetonitrile containing 0.1% (v/v) TFA. After loading, the column was rinsed with the same buffer until the absorbance reached background level. The column was subsequently eluted with a 15 minute linear gradient from 15% to 50% acetonitrile containing 0.1% TFA at a flow rate of 1 ml/min. The eluate was monitored for proteins by on-line measurement of the absorbance at 280 nm. […] Twenty μl fractions were tested in a liquid growth inhibition assay: 20 μl samples were incubated in microtiter plate wells with 80 μl of half strength potato dextrose broth (Difco) containing 10^4 spores/ml of F culmorum; growth of the fungi was monitored by microspectrophotometry as described by Broekaert et al (1990, FEMS Microbiol Lett, 69: 55-60).
The specific antifungal activity of RPC-purified peak A material, as well as that of plant-derivable Rs-AFP2, was determined by measuring the percentage growth inhibition of F culmorum caused by serial dilutions of the protein samples. […]

A further data set deals with Phoma betae. The data set is described as follows: Antifungal activity in three media differing in ionic strength (Table 3). Conditions: 72 hours. The method, then: (§1) The antifungal activity of the G9R and V39R Rs-AFP2 isoforms was also assessed on a set of seven different phytopathogenic fungi in three media differing in ionic strength: SMF−, SMF plus 1 mM CaCl2 and 50 mM KCl, and SMF plus 5 mM CaCl2 and 50 mM KCl. The fungi tested were: Alternaria brassicicola, Ascochyta pisi, Botrytis cinerea, Fusarium culmorum, Nectria haematococca, Phoma betae and Verticillium dahliae.

Another data set has as its system Botrytis cinerea. The data set is described as above. The method, then:
as §1

Another data set deals with Verticillium dahliae. The data set is described as above. On the procedure: as §1
The next data set deals with Ascochyta pisi. Described as above. On the procedure:
as §1

For a further data set, the system named is Nectria haematococca. The description is as above. On the procedure: as §1
The test system of the next data set is Alternaria brassicicola. The data set is described as above. The method, then:
as §1

For data set [2], the system named is Fusarium culmorum. Described as above. On the procedure: as §1
Data set [3] concerns F culmorum. The data set is described as follows: Specific antifungal activity of Rs-AFP2 isoforms in SMF− and SMF+ media. Also noted: IC50 SMF− / IC50 SMF+: unit not given here. Particulars: for RELATIVE SPECIFIC ACTIVITY (%) IN MEDIUM SMF+ / RELATIVE SPECIFIC ACTIVITY (%) IN MEDIUM SMF−: 1/IC50 of mutant divided by that of yRs-AFP2 x 100, 48 hour incubation, preliminary tests; for RELATIVE SPECIFIC ACTIVITY (%) IN MEDIUM SMF+: SMF with 1 mM CaCl2 and 50 mM KCl; for RELATIVE SPECIFIC ACTIVITY (%) IN MEDIUM SMF−: low ionic strength medium; for IC50 SMF+ / IC50 SMF−: 72 hours growth, triplicate; for IC50 SMF+: high salt medium (1 mM CaCl2, 50 mM KCl). On the procedure:
For each isoform, two independent purifications were carried out and the antifungal activity was determined in duplicate using F culmorum as a test fungus in two different media: a low ionic strength medium called SMF-(Terras et al, 1992, J Biol Chem, 267:15301-15309) and the same medium supplemented with 1 mM CaCl2 and 50 mM KCl called SMF+. The presence of salts in the test medium, especially salts with divalent cations, reduces the specific activity of Rs-AFP2. Seed-purified as well as yeast-expressed wild type Rs-AFP2 served as a control in the assays.
The relative specific activity is expressed as the specific activity of the mutant divided by the specific activity of yRs-AFP2 and multiplied by 100. […] The specific activity was measured in medium SMF−and SMF+.
Deviations are given as standard error of the mean (sem) based on the triplicate experiments. In SMF−, the medium without added salts, most of the derivatives show no decrease or only a minor decrease in antifungal activity, while in SMF+, the medium with added salts, there is a significant decrease in antifungal activity for several Rs-AFP2 isoforms.

Data set [4] deals with F culmorum. The data set is described as follows: Growth inhibition in SMF with varying CaCl2 or KCl (FIG. 7). On the procedure: Their antifungal activity was determined in SMF with increasing Ca^2+ or K^+ concentration and compared with that of plant-derivable wild type Rs-AFP2 (isolated from seed) as well as yeast purified Rs-AFP2. FIG. 7 is a graph of the percentage growth inhibition of F culmorum caused by 10 μg/ml of yeast-purified Rs-AFP2 (SEQ ID NO: 20) (open circles), seed-purified Rs-AFP2 (SEQ ID NO: 77) (closed circles), Rs-AFP2/G9R (SEQ ID NO: 38) (squares) and Rs-AFP2/V39R (SEQ ID NO: 43) (triangles) in a medium consisting of SMF with varying concentrations of CaCl2 (panel A) and KCl (panel B).

Where [5] appears, read: SMF plus 1 mM CaCl2 and 50 mM KCl.

The values that follow come from patent publication US6864068B2, “Antifungal proteins” (Syngenta Limited, priority 1995, dated 2005).

A value given as a limit tells only on which side of the number the result lay.

In the case of “SIα2: Sorghum bicolor α-amylase inhibitor 2, partially homologous to Rs-AFP2”, the antifungal activity result with Fusarium culmorum [1] (assayed as described in Example 2) is reported as “does not exhibit antifungal activity”.

In the case of “yRs-AFP2/V39R: yeast-expressed Rs-AFP2 isoform, position 39 valine to arginine (QKLCQRPSGTWSGVCGNNNACKNQCIRLEKARHGSCNYRFPAHKCICYFPC; listed as Raphanus sativus)”, in the data set with Phoma betae, the “IC50 VALUES, P betae, SMF + 1 mM CaCl2/50 mM KCl” value is 40.0 µg/mL and the “IC50 VALUES, P betae, SMF + 5 mM CaCl2/50 mM KCl” value is 70.0 µg/mL. For the same substance, the “IC50 VALUES, P betae, SMF” value with Phoma betae (SMF−) came out at 1.4 µg/mL. In the data set with Botrytis cinerea (72 hours), the “IC50 VALUES, B cinerea, SMF + 1 mM CaCl2/50 mM KCl” value is more than 50 µg/mL and the “IC50 VALUES, B cinerea, SMF + 5 mM CaCl2/50 mM KCl” value is more than 100 µg/mL. Also, the “IC50 VALUES, B cinerea, SMF” value in the data set with Botrytis cinerea (SMF−, 72 hours) was 1.6 µg/mL. In addition, the “activity against B cinerea compared with Rs-AFP2, in words” value in the data set on Botrytis cinerea (Table 3 data) is given as “comparable to the activity of Rs-AFP2”. In the data set with Verticillium dahliae (96 hours), the “IC50 VALUES, V dahliae, SMF + 1 mM CaCl2/50 mM KCl” value came out at 2.3 µg/mL and the “IC50 VALUES, V dahliae, SMF + 5 mM CaCl2/50 mM KCl” value turned out to be 6.0 µg/mL. In addition, the “fold activity relative to Rs-AFP2 against V dahliae” value in the data set with Verticillium dahliae (setting [5]) is reported as “five-fold more active”. Further, the “IC50 VALUES, V dahliae, SMF” value with Verticillium dahliae (SMF−, 96 hours) stood at 0.4 µg/mL. For the same substance, in the data set on Ascochyta pisi (72 hours), the “IC50 VALUES, A pisi, SMF + 1 mM CaCl2/50 mM KCl” value was more than 50 µg/mL and the “IC50 VALUES, A pisi, SMF + 5 mM CaCl2/50 mM KCl” value was more than 100 µg/mL. For the same substance, the “IC50 VALUES, A pisi, SMF” value in the data set on Ascochyta pisi (SMF−, 72 hours) worked out at 2.0 µg/mL. In addition, the “activity against A pisi compared with Rs-AFP2, in words” value in the data set on Ascochyta pisi (Table 3 data) is “comparable to the activity of Rs-AFP2”. Also, in the data set on Nectria haematococca (72 hours), the “IC50 VALUES, N haematococca, SMF + 1 mM CaCl2/50 mM KCl” value was 9.0 µg/mL and the “IC50 VALUES, N haematococca, SMF + 5 mM CaCl2/50 mM KCl” value was 62.0 µg/mL. For the same substance, the “fold activity relative to Rs-AFP2 against N haematococca” value with Nectria haematococca (setting [5]) is on record as “five-fold more active”. The “IC50 VALUES, N haematococca, SMF” value with Nectria haematococca (SMF−, 72 hours) turned out to be 2.1 µg/mL. In the data set with Alternaria brassicicola (72 hours), the “IC50 VALUES, A brassicicola, SMF + 1 mM CaCl2/50 mM KCl” value is 50 µg/mL and the “IC50 VALUES, A brassicicola, SMF + 5 mM CaCl2/50 mM KCl” value was more than 100 µg/mL. The “IC50 VALUES, A brassicicola, SMF” value with Alternaria brassicicola (SMF−, 72 hours) was determined as 2.5 µg/mL. The “activity against A brassicola compared with Rs-AFP2, in words” value in the data set on Alternaria brassicicola (Table 3 data) is reported as “comparable to the activity of Rs-AFP2”. For the same substance, in the data set with Fusarium culmorum [2] (96 hours), the “IC50 VALUES, F culmorum, SMF + 1 mM CaCl2/50 mM KCl” value stood at 2.3 µg/mL and the “IC50 VALUES, F culmorum, SMF + 5 mM CaCl2/50 mM KCl” value is 7.0 µg/mL. Also, the “fold activity relative to Rs-AFP2 against F culmorum” value in the data set with Fusarium culmorum [2] (setting [5]) is reported as “approximately two-fold more active”. For the same substance, in the data set with Fusarium culmorum [2] (SMF−, 96 hours), the “IC50 VALUES, F culmorum, SMF” value is 2.2 µg/mL. Besides, in the data set with F culmorum [3], the “RELATIVE SPECIFIC ACTIVITY (%) IN MEDIUM SMF+” value came to 114%, the “RELATIVE SPECIFIC ACTIVITY (%) IN MEDIUM SMF−” value stood at 74% and the “IC50 SMF+” value came out at 3.2. Besides, in the data set on F culmorum [3] (low salt medium), the “IC50 SMF−” value came out at 4.0. In the data set with F culmorum [3] (SMF+), the “antifungal activity in SMF+ relative to wild-type Rs-AFP2” value is “approximately two-fold higher”. Moreover, the “antifungal activity compared with yRs-AFP2, in words” value in the data set on F culmorum [3] (Table 1 tests, SMF− and SMF+) is “maintain their antifungal activity”. In addition, in the data set on F culmorum [3] (Table 2 tests, high salt medium), the “effect of substitution on antifungal activity in SMF+, in words” value is “increased antifungal activity”. Also, the “effect of substitution on antifungal activity in SMF−, in words” value in the data set with F culmorum [3] (Table 2 tests, low salt medium) is “little effect on the antifungal activity”. The “relative specific antifungal activity (1/IC50), FIG. 6, in words” value in the data set on F culmorum [3] (medium SMF+, Rs-AFP2 set at 100) is recorded as “particularly active”. Further, the “reduction of antifungal activity by cations, compared with wild-type Rs-AFP2” value with F culmorum [4] (FIG. 7) was “less reduced by the presence of cations”. The “activity in the presence of 100 mM KCl” value with F culmorum [4] (SMF with 100 mM KCl, FIG. 7, 10 μg/ml) is “fully inhibitory”. Moreover, the “growth inhibition in the presence of 5mM CaCl2” value in the data set on F culmorum [4] (protein 10 μg/ml, SMF with 5mM CaCl2) is recorded as “complete inhibition”.

Turning to “yRs-AFP2: yeast-expressed wild-type Rs-AFP2 (QKLCQRPSGTWSGVCGNNNACKNQCIRLEKARHGSCNYVFPAHKCICYFPC; listed as Raphanus sativus) [reference compound]”, in the data set on Fusarium culmorum [1] (F culmorum, from dose-response curves of serial dilutions), the “IC50 (concentration required for 50% growth inhibition)” value is reported as “about 3 μg/ml”. In addition, in the data set on Fusarium culmorum [1] (F culmorum, induction of multiple branches near the tips), the “type of inhibition (hyphal morphology)” value is recorded as “characteristic morphological distortion of the fungal hyphae”. In the data set with F culmorum [3], the “RELATIVE SPECIFIC ACTIVITY (%) IN MEDIUM SMF+” value was determined as 100%, the “RELATIVE SPECIFIC ACTIVITY (%) IN MEDIUM SMF−” value was found to be 100% and the “IC50 SMF+” value is listed as 8.5. Moreover, in the data set on F culmorum [3] (low salt medium), the “IC50 SMF−” value is given as 2.7.
